Common to all, as to format: cell-based, human
For assay [1], the system named is MCF-10A cells. The assay can be described thus: TUNEL assay, MCF-10A. The conditions noted are these: 30 µM, 72 h. Here is the method:
Apoptosis was tested by enzymatic labeling of DNA strand breaks using terminal deoxynucleotidyl transferase-mediated deoxyuridine triphosphate nick end-labeling (TUNEL) assay, following the guidelines of the manufacturer (TUNEL assay kit, Promega, Madison, WI, USA). Briefly, MCF-7 and HeLa cells were added with DMSO or treated with 15 and 30 µM OI, respectively, for 72 h. MCF-10A were added to DMSO or treated using 30 µM OI, for 72 h. Next, nuclear staining was achieved using 0.2 mg/mL 4′,6- diamidino-2-phenylindole (DAPI, Sigma-Aldrich, Milan, Italy) and samples were examined using a fluorescent microscope (Olympus BX4 equipped with CSV1.14 software employing a CAMXC-30 for image acquisition). Images were representative of three independent experiments.

The test system of another assay is HeLa cells. The assay can be described thus: Cell cycle analysis (PI staining, flow cytometry), HeLa. The conditions noted are these: 30 µM, 24 h. Here is the method: (§1) In order to assess cell cycle analysis, MCF-7 and HeLa cells were seeded in 6-well plates, at a density of 2.5 × 10^5 cells/well, then they were added to DMSO or treated using 15 and 30 µM OI, respectively, for 24 h. MCF-10A were seeded as described before, then they were added to DMSO or treated using 30 µM OI, the highest concentration used for cancer cells, for 24 h. Next, cells were harvested by trypsinization, rinsed twice with cold PBS, and pelleted by centrifugation at 1500 rpm for 5 min. Pellets were re-suspended in 70% ice-cold ethanol for 30 min at 4 °C to perform cell fixation. Then, samples were rinsed twice with PBS and stained using a solution containing 3.8 mM sodium citrate (Sigma-Aldrich, Milan, Italy), 100 μg/mL RNAse (Sigma-Aldrich, Milan, Italy), 50 μg/mL propidium iodide (PI, Sigma-Aldrich, Milan, Italy), and 0.1% Igepal (Sigma-Aldrich, Milan, Italy) in PBS for 1 h at 37 °C. Subsequent cytofluorimetric analysis was achieved by BD FACSJazz™ Cell Sorter (Becton Dickinson, Franklin Lakes, NJ, USA).

The subject of assay [2] is cyclin D1, CDK4, phosphorylated Rb in MCF-7 cells. The assay can be described thus: Western blot of cell cycle regulators, MCF-7. The conditions noted are these: MCF-7, 15 µM, 24 and 72 h. Here is the method:
Western blot analysis was conducted basically as previously reported. […] In order to obtain total cell lysates, harvested cells were lysed using 200 μL of lysis buffer as previously reported. Cytosolic and mitochondrial fractions were isolated as already described. Identical amounts of proteins from total lysate, mitochondrial, or cytosolic fraction were resolved on SDS-polyacrylamide gel, blotted to nitrocellulose membrane, and probed with proper primary antibodies (Santa Cruz Biotechnology, Dallas, TX, USA). Immunoreactive products were identified by using ECL Western blotting detection system (Bio-Rad Laboratories, Hercules, CA, USA).

Assay [3] has as its system MCF-10A cells. In words: Cell cycle analysis (PI staining, flow cytometry), MCF-10A. Particulars: 30 µM, 24 h. As for the experimental part:
as §1
A general note: A flow cytometer gives signals particle by particle.

The test system of assay [4] is MCF-7 cells. In words: Cell cycle analysis (PI staining, flow cytometry), MCF-7. The conditions noted are these: MCF-7, 15 µM, 24 h. Here is the method:
as §1

Assay [5] has as its system cytochrome c in HeLa cells. In words: Western blot of cytochrome c in cytosolic and mitochondrial fractions, HeLa. The conditions noted are these: 30 µM, 24 h, vs control. Here is the method: Both MCF-7 and HeLa cells were cultured in 100 mm dishes (1 × 10^7 cells/dish), added with the vehicle alone (DMSO) or treated for 24 h with 15 and 30 µM OI, respectively. Then, mitochondria extraction was performed as previously described. In brief, cells were harvested, resuspended in isolation buffer for cells (IBC, containing 200 mM sucrose, 10 mM Tris/MOPS, 1 mM EDTA/Tris, pH 7.4), and homogenized by a glass potter homogenizer. Nuclei and unbroken cells were removed by centrifugation (600× g for 10 min). Supernatants were centrifuged for 30 min at 10,000× g, obtaining upper cytosolic fractions and mitochondrial pellets; the latter were resuspended in RIPA buffer (PBS pH 7.4, 1% NP-40, 0.5% sodium deoxycholate, and 0.1% sodium dodecyl sulfate) containing a protease and phosphatase inhibitor cocktail (Sigma-Aldrich, Milan, Italy). Protein concentration was determined using Bio-Rad Protein Assay (Bio-Rad Laboratories, Hercules, CA, USA) and Western blotting was performed as next described.
Western blot analysis was conducted basically as previously reported. In detail, MCF-7 and HeLa cells were grown to 70–80% confluence, added to DMSO, or treated with 15 and 30 µM OI, respectively, for 24 h. In order to obtain total cell lysates, harvested cells were lysed using 200 μL of lysis buffer as previously reported. Cytosolic and mitochondrial fractions were isolated as already described. […]
(In general: Immunoblotting shows a protein as a band on a membrane.)

Assay [6] relates to MCF-7 cells. In words: ROS production (CM-H2DCFDA, FACS), MCF-7. The conditions noted are these: 24 h. As for the experimental part: Intracellular level of reactive oxygen species (ROS) was assessed by using CM-H2DCFDA (Invitrogen, Milan, Italy), a cell-permeable fluorogenic probe, which is deacetylated by intracellular esterases and can be oxidized in the presence of intracellular ROS, becoming highly fluorescent. MCF-7 and HeLa cells were seeded into 96-well tissue culture plates at a density of 5 × 10^4 cells/well and treated with 15 and 30 µM OI, respectively, for 24 h. Control cells were added with DMSO and processed at the same time. Then, cells were washed with PBS and stained in the dark with CM-H2DCFDA (diluted in PBS/CM to a final concentration of 1 μM) for 20 min at 37 °C. Next steps were also performed in the dark, in order to avoid probe oxidation. Cells were washed three times with PBS, harvested, re-suspended in PBS/CM, and fluorescence was measured by using Fortessa (BD Bioscience, San Jose, CA, USA). ROS levels were estimated by using mean fluorescent intensity of the viable cell population. Results were analyzed by the use of FlowJo software (Tree Star Inc., Ashland, OR, USA).

The structures appear in SMILES notation.

In the case of `CCN(CC)C(=O)/C=C1/OC(=O)N(Cc2ccccc2)C1(C)C` [OI, (E)-2-(3-benzyl-4,4-dimethyl-2-oxooxazolidin-5-ylidene)-N,N-diethylacetamide], in the assay with MCF-10A cells [1], the “effect in TUNEL assay” value is reported as “did not evidence any noticeable effect”. In the assay with HeLa cells, the “cells in the G1 phase” value is recorded as “remarkable increase” and the “cells in the S phase” value was “considerable decrease”. Moreover, the “CDK4 protein expression levels” value in assay [2] was “remained unaffected”. In assay [2] (time dependent), the “cyclin D1 protein content” value is listed as “significantly reduced” and the “phosphorylated Rb protein content” value was “significantly reduced”. Besides, the “effect on the cell cycle” value in the assay with MCF-10A cells [3] is given as “did not evidence any noticeable effect”. In the assay on MCF-7 cells [4], the “increase of the percentage of cells in the G0/G1 phase” value stood at 15% and the “reduction of the fraction of cells in the S-phase” value is on record as 30%. In addition, in assay [5], the “cytochrome c levels in the cytosolic fraction” value is “significant increases” and the “cytochrome c mitochondrial levels” value is “concomitant decreases”. Further, the “ROS increase in the presence of NAC” value in the assay on MCF-7 cells [6] (MCF-7, 15 µM OI + NAC) is on record as “no longer evident”. Moreover, the ROS generation entry in the assay on MCF-7 cells [6] (MCF-7, 15 µM, vs control) is recorded as “significantly stimulated”.

Source of the values: publication PMC7168333, “5-(Carbamoylmethylene)-oxazolidin-2-ones as a Promising Class of Heterocycles Inducing Apoptosis Triggered by Increased ROS Levels and Mitochondrial Dysfunction in Breast and Cervical Cancer” (Biomedicines, 2020).
